# Source: patent US11524966B1 (Valo Early Discovery, Inc., priority 2017, dated 2022)
# Molecular target: T1, USP28 (His-tagged USP28-FL-mammalian) (Homo sapiens, UniProt Q96RU2)
# T1 construct: Expression of USP28 (1-1077)-TEV-6*His (pTT5 vector); made in house; host or cells: Expi293f cells (pTT5 vector)
# T1 sequence (Q96RU2 1-1077): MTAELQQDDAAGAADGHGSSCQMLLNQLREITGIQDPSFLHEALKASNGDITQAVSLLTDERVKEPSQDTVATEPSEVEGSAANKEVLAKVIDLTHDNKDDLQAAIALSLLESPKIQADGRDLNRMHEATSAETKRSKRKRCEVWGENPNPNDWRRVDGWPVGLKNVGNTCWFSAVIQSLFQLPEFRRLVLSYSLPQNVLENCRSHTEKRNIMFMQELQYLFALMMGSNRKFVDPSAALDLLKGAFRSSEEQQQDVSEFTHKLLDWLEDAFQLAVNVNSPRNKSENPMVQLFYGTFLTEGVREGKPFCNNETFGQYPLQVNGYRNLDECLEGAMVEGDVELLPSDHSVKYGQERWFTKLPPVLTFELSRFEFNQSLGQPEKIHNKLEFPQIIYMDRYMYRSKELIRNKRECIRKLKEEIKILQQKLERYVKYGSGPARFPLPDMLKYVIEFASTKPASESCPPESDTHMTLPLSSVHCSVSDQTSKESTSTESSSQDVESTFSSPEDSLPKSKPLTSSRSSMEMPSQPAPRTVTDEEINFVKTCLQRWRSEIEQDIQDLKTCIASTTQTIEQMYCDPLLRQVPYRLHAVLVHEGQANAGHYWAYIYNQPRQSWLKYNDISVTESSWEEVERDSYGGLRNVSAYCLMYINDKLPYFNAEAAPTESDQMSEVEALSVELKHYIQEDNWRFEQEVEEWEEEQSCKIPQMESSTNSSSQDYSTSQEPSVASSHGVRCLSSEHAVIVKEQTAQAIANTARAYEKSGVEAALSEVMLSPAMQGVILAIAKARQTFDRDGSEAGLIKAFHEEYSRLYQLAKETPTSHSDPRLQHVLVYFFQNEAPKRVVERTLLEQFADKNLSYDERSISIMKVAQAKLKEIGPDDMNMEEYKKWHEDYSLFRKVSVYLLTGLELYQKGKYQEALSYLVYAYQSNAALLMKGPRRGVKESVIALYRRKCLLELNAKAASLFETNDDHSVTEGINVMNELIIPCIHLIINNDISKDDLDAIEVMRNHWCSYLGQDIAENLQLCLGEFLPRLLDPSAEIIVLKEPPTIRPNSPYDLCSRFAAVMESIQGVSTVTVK
# Test: Ubiquitin-Rhodamine 110 Assay for USP28 Activity, Example A-1(a)
# Assay type: biochemical
# Details: Ubiquitin-Rhodamine 110 assay, Example A-1(a); read-out: USP28 A-1(a) IC50 range
# In short: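 Full-length His-tagged human USP28 (1-1077, Expi293f-expressed), […], with 25 nM Ub-Rh110 (<<Km) in pH 8.0 Tris buffer with BME, BGG, Triton X-100. 10-point dilutions (25 μM-1.3 nM), 45 min at room temperature, citric acid stop, fluorescence 485/535 nm; IC50 by 4-parameter fit.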
row,SMILES,IC50 [nM]
1,"CO[C@@]1(C)CN(c2ccc3c(c2)OC[C@H](NC(=O)c2sc4nc(C)ccc4c2N)C3)C[C@@H]1N [Example 281, 3-amino-N-[(3R)-7-[(3S,4S)-4-amino-3-methoxy-3-methylpyrrolidin-1-yl]-3,4-dihydro-2H-1-benzopyran-3-yl]-6-methylthieno[2,3-b]pyridine-2-carboxamide]",1 to 50
2,"CO[C@]1(C)CN(c2ccc3c(c2)OC[C@H](NC(=O)c2sc4nc(C)ccc4c2N)C3)C[C@H]1N [Example 282, 3-amino-N-[(3R)-7-[(3R,4R)-4-amino-3-methoxy-3-methylpyrrolidin-1-yl]-3,4-dihydro-2H-1-benzopyran-3-yl]-6-methylthieno[2,3-b]pyridine-2-carboxamide]",1 to 50
3,"CO[C@@H]1[C@@H](N)CN(c2ccc3c(c2)OC[C@H](NC(=O)c2sc4nc(C)ccc4c2N)C3)[C@H]1C [Example 283, 3-amino-N-[(3R)-7-[(2S,3R,4S)-4-amino-3-methoxy-2-methylpyrrolidin-1-yl]-3,4-dihydro-2H-1-benzopyran-3-yl]-6-methylthieno[2,3-b]pyridine-2-carboxamide]",1 to 50
4,"CO[C@H]1[C@H](N)CN(c2ccc3c(c2)OC[C@H](NC(=O)c2sc4nc(C)ccc4c2N)C3)[C@@H]1C [Example 284, 3-amino-N-[(3R)-7-[(2R,3S,4R)-4-amino-3-methoxy-2-methylpyrrolidin-1-yl]-3,4-dihydro-2H-1-benzopyran-3-yl]-6-methylthieno[2,3-b]pyridine-2-carboxamide]",1 to 50
5,"Cc1ccc2c(N)c(C(=O)N[C@H]3CCc4nc(N5C[C@H](OC6CCC6)[C@@H](N)C5)ccc4C3)sc2n1 [Example 285, 3-amino-N-[(6S)-2-[(3S,4S)-3-amino-4-cyclobutoxypyrrolidin-1-yl]-5,6,7,8-tetrahydroquinolin-6-yl]-6-methylthieno[2,3-b]pyridine-2-carboxamide]",50 to 200
6,"CO[C@H]1CN(c2ccc3c(n2)OC[C@H](NC(=O)c2sc4nc(C)cc(C)c4c2N)C3)C[C@@H]1N [Example 286, 3-amino-N-[(3R)-7-[(3S,4S)-3-amino-4-methoxypyrrolidin-1-yl]-2H,3H,4H-pyrano[2,3-b]pyridin-3-yl]-4,6-dimethylthieno[2,3-b]pyridine-2-carboxamide]",50 to 200
7,"Cc1ccc2c(N)c(C(=O)N[C@H]3COc4nc(N5C[C@H](OC(C)C)[C@@H](N)C5)ccc4C3)sc2n1 [Example 287, 3-amino-N-[(3R)-7-[(3S,4S)-3-amino-4-(propan-2-yloxy)pyrrolidin-1-yl]-2H,3H,4H-pyrano[2,3-b]pyridin-3-yl]-6-methylthieno[2,3-b]pyridine-2-carboxamide]",200 to 2000
8,"Cc1ccc2c(N)c(C(=O)N[C@H]3COc4cc(N5CC[C@@H](N)C5)ccc4C3)sc2n1 [Example 288, 3-amino-N-[(3R)-7-[(3R)-3-aminopyrrolidin-1-yl]-3,4-dihydro-2H-1-benzopyran-3-yl]-6-methylthieno[2,3-b]pyridine-2-carboxamide]",1 to 50
9,"CO[C@]12CNC[C@H]1CN(c1ccc3c(c1)OC[C@H](NC(=O)c1sc4nc(C)ccc4c1N)C3)C2 [Example 291, N-[(3R)-7-[(3aS,6aS)-3a-methoxy-octahydropyrrolo[3,4-c]pyrrol-2-yl]-3,4-dihydro-2H-1-benzopyran-3-yl]-3-amino-6-methylthieno[2,3-b]pyridine-2-carboxamide]",1 to 50
10,"CO[C@@]12CNC[C@@H]1CN(c1ccc3c(c1)OC[C@H](NC(=O)c1sc4nc(C)ccc4c1N)C3)C2 [Example 292, N-[(3R)-7-[(3aR,6aR)-3a-methoxy-octahydropyrrolo[3,4-c]pyrrol-2-yl]-3,4-dihydro-2H-1-benzopyran-3-yl]-3-amino-6-methylthieno[2,3-b]pyridine-2-carboxamide]",1 to 50
11,"CO[C@H]1CN(c2ccc3c(n2)CC[C@H](NC(=O)c2sc4nc(C)cc(C)c4c2N)C3)C[C@@H]1NC(C)=O [Example 293, 3-amino-N-[(6S)-2-[(3S,4S)-3-acetamido-4-methoxypyrrolidin-1-yl]-5,6,7,8-tetrahydroquinolin-6-yl]-4,6-dimethylthieno[2,3-b]pyridine-2-carboxamide]",50 to 200
12,"Cc1ccc2c(N)c(C(=O)N[C@H]3COc4cc(N5C[C@H](C(F)F)[C@@H](N)C5)ccc4C3)sc2n1 [Example 294, 3-amino-N-[(3R)-7-[(3R,4S)-3-amino-4-(difluoromethyl)pyrrolidin-1-yl]-3,4-dihydro-2H-1-benzopyran-3-yl]-6-methylthieno[2,3-b]pyridine-2-carboxamide]",1 to 50
13,"Cc1ccc2c(N)c(C(=O)N[C@H]3COc4cc(N5C[C@@H](N)[C@H](C(F)F)C5)ccc4C3)sc2n1 [Example 295, 3-amino-N-[(3R)-7-[(3S,4R)-3-amino-4-(difluoromethyl)pyrrolidin-1-yl]-3,4-dihydro-2H-1-benzopyran-3-yl]-6-methylthieno[2,3-b]pyridine-2-carboxamide]",1 to 50
14,"COC[C@@H]1CN(c2ccc3c(n2)CC[C@H](NC(=O)c2sc4nc(C)cc(C)c4c2N)C3)C[C@@H]1N [Example 296, 3-amino-N-[(6S)-2-[(3R,4R)-3-amino-4-(methoxymethyl)pyrrolidin-1-yl]-5,6,7,8-tetrahydroquinolin-6-yl]-4,6-dimethylthieno[2,3-b]pyridine-2-carboxamide-]",50 to 200
15,"COC[C@H]1CN(c2ccc3c(n2)CC[C@H](NC(=O)c2sc4nc(C)cc(C)c4c2N)C3)C[C@H]1N [Example 297, 3-amino-N-[(6S)-2-[(3S,4S)-3-amino-4-(methoxymethyl)pyrrolidin-1-yl]-5,6,7,8-tetrahydroquinolin-6-yl]-4,6-dimethylthieno[2,3-b]pyridine-2-carboxamide]",1 to 50
16,"COC[C@@H]1CN(c2ccc3c(n2)CC[C@H](NC(=O)c2sc4nc(C)cnc4c2N)C3)C[C@@H]1N [Example 298, 7-amino-N-[(6S)-2-[(3R,4R)-3-amino-4-(methoxymethyl)pyrrolidin-1-yl]-5,6,7,8-tetrahydroquinolin-6-yl]-3-methylthieno[2,3-b]pyrazine-6-carboxamide]",200 to 2000
17,"COC[C@H]1CN(c2ccc3c(n2)CC[C@H](NC(=O)c2sc4nc(C)cnc4c2N)C3)C[C@H]1N [Example 299, 7-amino-N-[(6S)-2-[(3S,4S)-3-amino-4-(methoxymethyl)pyrrolidin-1-yl]-5,6,7,8-tetrahydroquinolin-6-yl]-3-methylthieno[2,3-b]pyrazine-6-carboxamide]",50 to 200
18,"COC[C@@H]1CN(c2nc3c(cc2F)C[C@@H](NC(=O)c2sc4nc(C)ccc4c2N)CC3)C[C@@H]1N [Example 300, 3-amino-N-[(6S)-2-[(3R,4R)-3-amino-4-(methoxymethyl)pyrrolidin-1-yl]-3-fluoro-5,6,7,8-tetrahydroquinolin-6-yl]-6-methylthieno[2,3-b]pyridine-2-carboxamide]",200 to 2000
19,"COC[C@H]1CN(c2nc3c(cc2F)C[C@@H](NC(=O)c2sc4nc(C)ccc4c2N)CC3)C[C@H]1N [Example 301, 3-amino-N-[(6S)-2-[(3S,4S)-3-amino-4-(methoxymethyl)pyrrolidin-1-yl]-3-fluoro-5,6,7,8-tetrahydroquinolin-6-yl]-6-methylthieno[2,3-b]pyridine-2-carboxamide]",> 2000
20,"Cc1ccc2c(N)c(C(=O)N[C@H]3COc4cc(N5C[C@@H]6CCN[C@@H]6C5)ccc4C3)sc2n1 [Example 304, N-[(3R)-7-[(3aS,6aS)-octahydropyrrolo[3,4-b]pyrrol-5-yl]-3,4-dihydro-2H-1-benzopyran-3-yl]-3-amino-6-methylthieno[2,3-b]pyridine-2-carboxamide]",1 to 50
21,"Cc1ccc2c(N)c(C(=O)N[C@H]3COc4cc(N5C[C@H]6CCN[C@H]6C5)ccc4C3)sc2n1 [Example 305, N-[(3R)-7-[(3aR,6aR)-octahydropyrrolo[3,4-b]pyrrol-5-yl]-3,4-dihydro-2H-1-benzopyran-3-yl]-3-amino-6-methylthieno[2,3-b]pyridine-2-carboxamide]",1 to 50
22,"Cc1ccc2c(N)c(C(=O)N[C@H]3COc4cc(N5CCC6(CNC6)C5)ccc4C3)sc2n1 [Example 306, 3-amino-N-[(3R)-7-{2,6-diazaspiro[3.4]octan-6-yl}-3,4-dihydro-2H-1-benzopyran-3-yl]-6-methylthieno[2,3-b]pyridine-2-carboxamide]",1 to 50
